By Ki is commonly meant the dissociation constant of the complex between target and ligand, obtained from inhibition or displacement. Read a low Ki as a stronger hold on the target. As usually defined, the ED50 is the dose at which the effect has come halfway, by size or by number of responders.

The values that follow come from ChEMBL document CHEMBL1129789, “Dopamine D3 and D4 receptor antagonists: synthesis and structure--activity relationships of (S)-(+)-N-(1-Benzyl-3-pyrrolidinyl)-5-chloro-4- [(cyclopropylcarbonyl) amino]-2-methoxybenzamide (YM-43611) and related compounds” (J Med Chem, 1996).

The target of one assay is D(3) dopamine receptor (Rattus norvegicus, UniProt P19020). The assay can be described thus: biochemical.
Chain of D(3) dopamine receptor (P19020 whole entry): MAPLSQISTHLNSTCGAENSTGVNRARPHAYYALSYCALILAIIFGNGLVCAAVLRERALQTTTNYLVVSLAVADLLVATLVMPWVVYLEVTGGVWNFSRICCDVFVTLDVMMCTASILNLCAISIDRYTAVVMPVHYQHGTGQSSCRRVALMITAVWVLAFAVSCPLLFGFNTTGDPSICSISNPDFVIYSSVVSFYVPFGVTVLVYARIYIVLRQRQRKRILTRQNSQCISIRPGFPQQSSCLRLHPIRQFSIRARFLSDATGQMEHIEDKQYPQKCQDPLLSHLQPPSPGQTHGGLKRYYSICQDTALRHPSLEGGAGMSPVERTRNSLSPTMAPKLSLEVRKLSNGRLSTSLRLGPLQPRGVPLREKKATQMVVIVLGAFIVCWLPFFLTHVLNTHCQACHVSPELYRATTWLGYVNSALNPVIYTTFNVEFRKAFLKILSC
Assay [1] concerns Mus musculus. The assay can be described thus: Compound was tested for inhibition of Apomorphine induced climbing in Mice on subcutaneous administration. The class given is functional. Particulars: sc.
The next assay deals with T1, D(4) dopamine receptor (Homo sapiens, UniProt P21917).
T1 sequence (P21917 whole entry): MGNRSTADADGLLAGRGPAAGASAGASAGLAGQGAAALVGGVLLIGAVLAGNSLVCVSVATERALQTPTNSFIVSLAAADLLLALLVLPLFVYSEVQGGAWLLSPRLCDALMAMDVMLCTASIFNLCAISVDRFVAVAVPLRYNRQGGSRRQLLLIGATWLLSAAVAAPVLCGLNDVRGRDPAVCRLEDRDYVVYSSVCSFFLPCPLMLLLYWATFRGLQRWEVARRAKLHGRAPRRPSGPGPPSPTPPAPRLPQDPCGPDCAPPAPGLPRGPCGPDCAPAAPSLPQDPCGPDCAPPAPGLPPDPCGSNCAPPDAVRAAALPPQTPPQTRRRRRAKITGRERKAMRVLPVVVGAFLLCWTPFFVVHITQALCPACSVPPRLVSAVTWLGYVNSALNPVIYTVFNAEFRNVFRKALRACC
The assay can be described thus: biochemical.

Assay [2] is filed under the species Mus musculus. The assay can be described thus: Compound was tested for inhibition of Apomorphine induced climbing in Mice. The class given is functional.
Assay [3] concerns Mus musculus. Kind of assay: Inhibition of Apomorphine induced climbing in mice administered sc. The class given is functional.
Another assay deals with Adrenergic receptor beta (Rattus norvegicus, UniProt P18090+P10608+P26255). Kind of assay: Compound was tested for the binding affinity against rat cortical Beta adrenergic receptor by Radio ligand [3H]dihydroalprenolol binding assay. Type of assay: protein assay.

Structures are written as SMILES.

Description for D(3) dopamine receptor: Binding affinity to rat Dopamine receptor D3 expressed in CHO cells was determined using [125 I] iodosulpride as radioligand

Turning to `COc1cc(N)c(Cl)cc1C(=O)N[C@@H]1CCN(Cc2ccccc2)C1`, the inhibition constant Ki at D(3) dopamine receptor is 1.9 nM.

For the compound `COc1cc(NC(=O)C2CC2)c(Cl)cc1C(=O)N[C@H]1CCN(C2CCCCC2)C1`, the ED50 in the assay with Mus musculus [1] is 1.4 mg/kg. The results for the Ki on D(4) dopamine receptor and on D(3) dopamine receptor were 2.1 nM and 4.4 nM, respectively.

As for `COc1cc(NC(=O)C2CC2)c(Cl)cc1C(=O)N[C@H]1CCN(CCc2ccccc2)C1`, the Ki was 3.4 nM on D(4) dopamine receptor and 33 nM at D(3) dopamine receptor.

For the compound `COc1cc(NC(=O)C(F)(F)F)c(Cl)cc1C(=O)N[C@H]1CCN(Cc2ccccc2)C1`, the Ki on D(4) dopamine receptor amounted to 1.9 nM; at D(3) dopamine receptor it was 5.1 nM.

On to `COc1cc(NC(=O)C2CC2)c(Cl)cc1C(=O)N[C@H]1CCN(C2C3CC4CC(C3)CC2C4)C1` (stereo partly drawn), for which the median effective dose (ED50) with Mus musculus [1] was > 10 mg/kg. The results for the Ki at D(4) dopamine receptor and at D(3) dopamine receptor were 4.4 nM and 1.7 nM, respectively.

With `COc1cc(NC(=O)C2CC2)c(Cl)cc1C(=O)N[C@H]1CCNC1`, the ED50 in the assay on Mus musculus [1] is > 30 mg/kg. Also, the Ki was 2200 nM at D(4) dopamine receptor and 3000 nM at D(3) dopamine receptor.

For `COc1cc(NC(=O)C2CC2)c(Cl)cc1C(=O)N[C@H]1CCN(C2C3CCCC2CCC3)C1` (stereo partly drawn), the ED50 in the assay on Mus musculus [1] was > 10 mg/kg. In addition, the Ki at D(4) dopamine receptor was 3.8 nM; at D(3) dopamine receptor, 2.2 nM.

Turning to `COc1cc(NC(=O)C2CCC2)c(Cl)cc1C(=O)N[C@H]1CCN(Cc2ccccc2)C1`, it took a dose of 0.14 mg/kg to reach the 50% effect level in the assay on Mus musculus [1] (ED50). In addition, the Ki on D(4) dopamine receptor worked out at 5.2 nM; on D(3) dopamine receptor it was 36 nM.

In the case of `CNc1cc(OC)c(C(=O)N[C@H]2CCN(C3C4CCCC3CCC4)C2)cc1Cl` (stereo partly drawn), the Ki on D(4) dopamine receptor was determined as 0.67 nM; on D(3) dopamine receptor, 0.24 nM.

With `COc1cc(NC(=O)C2CC2)c(Cl)cc1C(=O)N[C@H]1CCN(CC2CCCCC2)C1`, the Ki came out at 3.3 nM on D(4) dopamine receptor and 3.7 nM on D(3) dopamine receptor.

Compound `COc1cc(NC(=O)C2CC2)c(Cl)cc1C(=O)N[C@@H]1CCN(Cc2ccccc2)C1` returned an ED50 in the assay on Mus musculus [1] of 0.45 mg/kg. In addition, the Ki came out at 5.6 nM on D(4) dopamine receptor and 60 nM at D(3) dopamine receptor.

On to `CN1CCN(C2=Nc3cc(Cl)ccc3Nc3ccccc32)CC1` [CLOZAPINE], for which, in the assay filed under Mus musculus [2], it took a dose of 6.8 mg/kg to reach the 50% effect level (ED50).

Turning to `COc1cc(NC(=O)C(C)C)c(Cl)cc1C(=O)N[C@H]1CCN(Cc2ccccc2)C1`, the Ki turned out to be 3 nM on D(4) dopamine receptor and 15 nM on D(3) dopamine receptor.

Turning to `COc1cc(NC(=O)c2ccccc2)c(Cl)cc1C(=O)N[C@H]1CCN(Cc2ccccc2)C1`, the Ki was found to be 87 nM on D(4) dopamine receptor and 200 nM at D(3) dopamine receptor.

On to `CNc1cc(OC)c(C(=O)N[C@H]2CCN(Cc3ccccc3)[C@H]2C)cc1Cl` [NEMONAPRIDE], for which the median effective dose (ED50) with Mus musculus [1] was found to be 0.012 mg/kg.

For `C=CC(=O)Nc1cc(OC)c(C(=O)N[C@H]2CCN(Cc3ccccc3)C2)cc1Cl`, the figures for the Ki at D(4) dopamine receptor and at D(3) dopamine receptor were 1.3 nM and 4.7 nM, respectively.

In turn, `COc1cc(N)c(Cl)cc1C(=O)N[C@H]1CCN(Cc2ccccc2)C1` yielded an ED50 in the assay on Mus musculus [3] of 0.071 mg/kg. In addition, the Ki on D(3) dopamine receptor is 0.58 nM.

For `COc1cc(NC(=O)C2CC2)c(Cl)cc1C(=O)N[C@H]1CCN(C2CCCCCC2)C1`, the Ki on D(4) dopamine receptor was 2.7 nM; at D(3) dopamine receptor it was 1.5 nM.

Compound `COc1cc(NC(=O)C2CCCC2)c(Cl)cc1C(=O)N[C@H]1CCN(Cc2ccccc2)C1` came in with an ED50 with Mus musculus [1] of 0.28 mg/kg. The Ki on D(4) dopamine receptor was 20 nM; on D(3) dopamine receptor, 55 nM.

Regarding `COc1cc(NC(=O)C2CCC2)c(Cl)cc1C(=O)N[C@@H]1CCN(Cc2ccccc2)C1`, the results for the Ki at D(4) dopamine receptor and on D(3) dopamine receptor were 7 nM and 100 nM, respectively.

Turning to `COc1cc(NC(=O)C2CCCCC2)c(Cl)cc1C(=O)N[C@H]1CCN(Cc2ccccc2)C1`, the Ki turned out to be 110 nM at D(4) dopamine receptor and 200 nM at D(3) dopamine receptor.

`COc1cc(NC(=O)C2CCCC2)c(Cl)cc1C(=O)N[C@@H]1CCN(Cc2ccccc2)C1`: the Ki was 18 nM at D(4) dopamine receptor and 150 nM on D(3) dopamine receptor.

In turn, `CCC(=O)Nc1cc(OC)c(C(=O)N[C@H]2CCN(Cc3ccccc3)C2)cc1Cl` returned a median effective dose (ED50) with Mus musculus [1] of 0.31 mg/kg. The figures for the inhibitory constant (Ki) on D(4) dopamine receptor and at D(3) dopamine receptor were 1.5 nM and 5.9 nM, respectively.

With `O=C(CCCN1CCC(O)(c2ccc(Cl)cc2)CC1)c1ccc(F)cc1` [HALOPERIDOL], the Ki at Adrenergic receptor beta is > 10000 nM. In addition, it took a dose of 0.041 mg/kg to reach the 50% effect level in the assay listed under Mus musculus [2] (ED50).
